Measured values published in patent US20250376441A1, “NOVEL COMPOUND AND PHARMACEUTICAL COMPOSITION COMPRISING SAME AS ACTIVE INGREDIENT” (Industry-Academic Cooperation Foundation, Yonsei University, priority 2017, published 2025).
Read-outs that look alike come from different tables or passages of the source.

Key:
[1] = test system: amyloid-beta peptide1-42 degenerative neurological disease-induced mice; assay: Morris water maze test; format: in vivo, ICR mice
Description: Six-week-old ICR mice (male) were purchased, and then examined for general health for 6 days while subjecting them to quarantine and acclimation under an environment of animal breeding room. Then, healthy individuals were selected and used for the experiment. Identification of each individual was made by marking the number of each individual on the tail using a permanent marker, and identification of a breeding box was made by attaching an individual identification card on which test number, test substance name, test item, date of acquisition, acclimation period, date of grouping, test period, sex/animal number, and person in charge are indicated.
In order to induce a degenerative neurological disease, the experimental animals of Preparatory Example 1 were anesthetized by inhalation with 2.5% isoflurane. Then, 1 μg of amyloid-beta peptide1-42, a degenerative neurological disease-inducing substance, was administered to the animals at both hippocampal positions (AP: −2.3, L: ±2.0, H: −1.5) using a stereotaxic apparatus. […] For the administration, 1 μl was injected, at a flow rate of 0.2 μl/min, with a […] gas-tight glass syringe (Hamilton, Reno, NV, USA) using a perfusion pump (Pump 22, Harvard Apparatus, South Natick, MA, USA). Subsequently, the syringe was allowed to stand for 5 minutes and then removed.
Then, a degenerative neurological disease was induced as in Preparation Example 2.
After induction of the degenerative neurological disease, the following test was conducted after a one-day recovery period passed.
A circular pool (diameter: 120 cm, height: 75 cm) was filled with water to a depth of 25±1 cm as in FIG. 4, and a 24 cm platform was prepared by hiding it 1 cm below the water surface. Space cues were installed on the four sides of the wall so that the aminals can identify locations, and skimmed milk powder was dissolved into water so that the animals cannot identify the platform with naked eyes. One day before the experiment, all the experimental animals were allowed to swim freely for 1 minute in a water bath having no platform, so that the animals can adapt to the swimming situation. After that, a test group was allowed to start, in any order, from two of the three quadrants except the quadrant where the platform was placed, and allowed to find the platform for 60 seconds. In a case where an animal finds the platform, the animal was allowed to stay thereon for 20 seconds. […] As soon as end of the position learning time, which is the 20-second staying time, the animal was allowed to start again from any quadrant, and the time and distance to reach the platform were measured. The procedure was performed four times a day, and all procedures were taken with a camera and analyzed with a video tracking system (Panlab, USA). Probe trials were made on the fifth day after the four-day experiment in toal was completed. The test group was allowed to swim freely for 90 seconds without the platform, thereby performing evaluation on whether the test group holds a memory of the platform location. The results are illustrated in FIGS. 5 to 7.

acetylcholine hydrolase = format: in vivo; settings: brain tissue
Description: (§1) Subsequently, the syringe was allowed to stand for 5 minutes and then removed.
Then, acetylcholine hydrolase activity was measured by the following method. To a microplate were continuously added 300 μl of 0.1 M Tris buffer, pH 8.0 (Trizma HCl±Trizmabase), 20 μl of 0.01 M dithionitrobenzoic acid (DTNB; Sigma, USA), 10 μl of brain tissue homogenate (enzyme suspension). Immediately before absorbance measurement, 10 μl of 0.1 M acetylthiocholine chloride (Sigma, USA) as a substrate was added thereto. An absorbance meter was used to observe absorbance changes at 405 nm for 5 minutes, so that acetylcholine hydrolase activity (unit/min/mg protein) was measured.

[2] = test system: Tunel positive cells in brain tissue; assay: Apoptosis level in brain tissue by TUNEL assay; format: in vivo, ICR mice
Description: as §1
Then, an apoptosis level was checked through TUNEL assay. The TUNEL assay is a method to search for cells that have undergone apoptosis by attaching a fluorescent substance to ends of DNA fragments cleaved due to apoptosis. The extracted brain tissue of the experimental animal is fixed by perfusion with 4% formaldehyde. Then, the brain tissue was embedded in paraffin and sectioned to a thickness of 5 μm. The brain tissue fixed on a slide was subjected to a TUNEL assay kit so that the end portions where DNA having undergone apoptosis had been fragmented are fluorescence-stained, and checked by a fluorescence microscope.

[3] = format: in vitro ADME; settings: PAMPA
Description: The results are illustrated in FIG. 17.

[4] = test system: Salmonella typhimurium TA98; assay: Ames reverse mutation test, TA98
Description: (§2) For each strain, treatment with a single concentration of 200 μg/plate was performed in triplicate and mutation was checked.

[5] = test system: Salmonella typhimurium TA100
Description: as §2

VERO = assay: Cytotoxicity test (Cyto X cell viability assay kit), VERO; format: cell-based; settings: Chlorocebus sabaeus
Description: (§3) In order to identify whether the Preparation Example 6 according to the present invention is toxic to cells, a cytotoxicity test was conducted at the Korea Research Institute of Chemical Technology using the Cyto X™ cell viability assay kit ([…]).

HFL-1 = assay: Cytotoxicity test (Cyto X cell viability assay kit), HFL-1; format: cell-based; settings: Homo sapiens, HFL1
Description: as §3

CHO-K1 = assay: Cytotoxicity test (Cyto X cell viability assay kit), CHO-K1; format: cell-based; settings: Cricetulus griseus
Description: as §3

[6] = Lipophilicity (pKa, LogP); format: physicochemical; settings: ACD/Labs T3 (pH-metrior)
Description: For a preliminary examination on clinical application of the Preparation Example 6, evaluation on lipophilicity and solubility was performed.

Compound: COc1ccc(OC)c(/C=C/C(=O)c2ccc(NS(=O)(=O)c3ccc(Cl)cc3)cc2)c1 [Preparation Example 6, (E)-4-Chloro-N-(4-(3-(2,5-dimethoxyphenyl)acryloyl)phenyl)benzenesulfonamide]
- maximum platform escape latency ([1]; 1 mg): 136.45 (±26.02) seconds
- minimum time to find the platform ([1]; 1 mg): 44.45 (±13.35) seconds
- escape latency, fourth trial (short-term memory) ([1]; 1 mg, fourth day, p<0.05): 44.45 ± 13.35 s
- escape latency, first trial (long-term memory) ([1]; 1 mg, fourth day, p<0.05 vs beta-amyloid group): 73.58 ± 9.14 s
- maximum platform escape latency ([1]; 10 mg): 128.59 (±23.32) seconds
- minimum time to find the platform ([1]; 10 mg): 40.64 (±10.94) seconds
- escape latency, fourth trial (short-term memory) ([1]; 10 mg, first day, p<0.05): 76.14 ± 13.27 s
- escape latency, fourth trial (short-term memory) ([1]; 10 mg, fourth day, p<0.05): 40.64 ± 10.94 s
- escape latency, first trial (long-term memory) ([1]; 10 mg, fourth day, p<0.05 vs beta-amyloid group): 65.22 ± 13.65 s
- escape latency, fourth trial (short-term memory) ([1]; 10 mg, second day, p<0.05): 59.87 ± 12.56 s
- escape latency, first trial (long-term memory) ([1]; 10 mg, second day, p<0.05 vs beta-amyloid group): 95.05 ± 18.06 s
- escape latency, fourth trial (short-term memory) ([1]; 10 mg, third day, p<0.05): 54.07 ± 14.38 s
- escape latency, first trial (long-term memory) ([1]; 10 mg, third day, p<0.05 vs beta-amyloid group): 91.66 ± 12.68 s
- maximum platform escape latency ([1]; 100 mg): 125.66 (±19.35) seconds
- minimum time to find the platform ([1]; 100 mg): 36.48 (±9.54) seconds
- escape latency, fourth trial (short-term memory) ([1]; 100 mg, first day, p<0.05): 73.79 ± 12.15 s
- escape latency, fourth trial (short-term memory) ([1]; 100 mg, fourth day, p<0.01): 36.48 ± 9.54 s
- escape latency, first trial (long-term memory) ([1]; 100 mg, fourth day, p<0.05 vs beta-amyloid group): 64.7 ± 12.63 s
- escape latency, first trial (long-term memory) ([1]; 100 mg, second day, p<0.01 vs beta-amyloid group): 91.66 ± 12.68 s
- escape latency, fourth trial (short-term memory) ([1]; 100 mg, second day, p<0.05): 59.62 ± 8.22 s
- escape latency, fourth trial (short-term memory) ([1]; 100 mg, third day, p<0.01): 47.74 ± 10.81 s
- escape latency, first trial (long-term memory) ([1]; 100 mg, third day, p<0.05 vs beta-amyloid group): 83.41 ± 11.46 s
- acetylcholine hydrolase activity (acetylcholine hydrolase; 10 mg): 0.25±0.07 U/mg protein
- acetylcholine hydrolase activity (acetylcholine hydrolase; 100 mg): 0.24±0.05 U/mg protein
- number of Tunel positive cells ([2]; 1 mg, p<0.05): 88.83±18.98
- number of Tunel positive cells ([2]; 10 mg, p<0.01): 69.5±17.87
- number of Tunel positive cells ([2]; 100 mg, p<0.01): 67.00±19.54
- degree of permeability [3]: medium value
- membrane permeability measured value [3]: −4.4±0.152
- Ames reverse mutation test outcome ([4]; TA98, 200 μg/plate, with or without S9): negative
- Reverse mutation [factor] with S-9 mix ([4]; TA98, with S-9, factor versus control): [1.5]
- Reverse mutation/dish (mean ± SD) with S-9 mix ([4]; TA98, with S-9, Preparation Example 6 at 200 μg/plate, Benzo(a)pyrene concentration 2): 35 ± 2
- Reverse mutation [factor] w/o S-9 mix ([4]; TA98, without S-9, factor versus control): [1.1]
- Reverse mutation/dish (mean ± SD) w/o S-9 mix ([4]; TA98, without S-9, Preparation Example 6 at 200 μg/plate, 2-Nitrofluorene concentration 2): 20 ± 4
- Ames reverse mutation test outcome ([5]; TA100, 200 μg/plate, with or without S9): negative
- Reverse mutation [factor] with S-9 mix ([5]; TA100, with S-9, factor versus control): [1.0]
- Reverse mutation/dish (mean ± SD) with S-9 mix ([5]; TA100, with S-9, Preparation Example 6 at 200 μg/plate, Benzo(a)pyrene concentration 2): 117 ± 4
- Reverse mutation [factor] w/o S-9 mix ([5]; TA100, without S-9, factor versus control): [0.9]
- Reverse mutation/dish (mean ± SD) w/o S-9 mix ([5]; TA100, without S-9, Preparation Example 6 at 200 μg/plate, Sodium azide concentration 1): 104 ± 12
- IC50 (VERO): 83.6 µM
- IC50 (HFL-1): > 100 µM
- IC50 (CHO-K1): > 100 µM
- logP [6]: 4.75
